For one assay, the target named is T1, hCA II (Homo sapiens, UniProt P00918).
T1 construct: gene CA2; recombinant
Kind of assay: stopped-flow CO2 hydration assay. The assay is classed as biochemical. In outline: (§1)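 Recombinant human carbonic anhydrase CO2 hydration was followed by stopped-flow for 10–100 s with 0.2 mM phenol red (557 nm), 20 mM Hepes pH 7.5, 20 mM Na2SO4 and 1.7–17 mM CO2. Enzyme and inhibitor (diluted to 0.005 nM in buffer) were preincubated 15 min at room temperature. Initial rates used at least six traces, with uncatalysed rates subtracted. Ki was fitted by non-linear least squares with Cheng–Prusoff equation, averaged over three or more determinations.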

The target in the next assay is T2, hCA I (Homo sapiens, UniProt P00915).
T2 construct: gene CA1; recombinant
T2 sequence (P00915 2-261): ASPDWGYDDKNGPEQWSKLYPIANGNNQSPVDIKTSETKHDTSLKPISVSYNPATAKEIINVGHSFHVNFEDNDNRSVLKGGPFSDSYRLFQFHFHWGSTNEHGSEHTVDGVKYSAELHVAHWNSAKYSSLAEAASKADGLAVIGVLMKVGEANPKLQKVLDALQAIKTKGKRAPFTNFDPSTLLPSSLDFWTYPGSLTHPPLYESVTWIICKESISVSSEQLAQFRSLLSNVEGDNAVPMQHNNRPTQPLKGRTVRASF
Kind of assay: stopped-flow CO2 hydration assay. Type of assay: biochemical. In outline: as §1

The next assay addresses T3, hCA VII (Homo sapiens, UniProt P43166).
T3 construct: gene CA7; recombinant
Description: stopped-flow CO2 hydration assay. Type of assay: biochemical. A digest of the protocol: as §1

In a further assay the target is T4, hCA IX (Homo sapiens, UniProt Q16790).
T4 construct: gene CA9; recombinant
Description: stopped-flow CO2 hydration assay. Type of assay: biochemical. In outline: as §1

For assay [1], the system named is T5, E. faecalis ATCC 29212 (EF).
T5 construct: ATCC 29212
Kind of assay: microbe, parasite or virus in culture. Conditions: Enterococcus faecalis, ATCC29212, 24 h. On the set-up: broth microdilution MIC in BHI, Alamar Blue read-out, 37 °C. The procedure:
(§2) The inhibition activity against enterococci was evaluated by the microtitration broth method according to the Clinical and Laboratory Standards Institute with some modifications. The compounds were dissolved in DMSO and serially diluted in Brain Hearth Infusion (BHI) to reach concentrations 256–2 µg/mL. […] The experiment was repeated at least three times. All the investigated compounds were tested on their anti-staphylococcal activity against three clinical isolates of methicillin-resistant Staphylococcus aureus (MRSA) and S. aureus ATCC 29213 as the reference and quality control strain.

Assay [2] has as its system T6, Enterococcus faecalis VRE 342 B.
T6 construct: VRE 342 B (vanA clinical isolate)
Description: organism not typed. On the set-up: broth microdilution MIC in BHI, Alamar Blue read-out, 37 °C. The following applies: 24 h. The procedure:
as §2

In assay [3] the test system is T7, Enterococcus faecalis VRE 368.
T7 construct: VRE 368 (vanA clinical isolate)
Description: organism not typed. On the set-up: broth microdilution MIC in BHI, Alamar Blue read-out, 37 °C. Conditions: 24 h. The procedure: as §2

The subject of assay [4] is T8, Enterococcus faecalis VRE 725 B.
T8 construct: VRE 725B (vanA clinical isolate)
Description: organism not typed. On the set-up: broth microdilution MIC in BHI, Alamar Blue read-out, 37 °C. The following applies: 24 h. The procedure:
as §2, with “strain. […] All the compounds were tested against Enterococcus faecalis ATCC 29212 as the reference strain and three isolates from American crows of vanA-carrying vancomycin-resistant E. faecalis (VRE), and the activities, expressed as minimum inhibitory concentrations (MICs), are listed in Table 3.” for “strain.”

A further assay addresses T9, hCA XII (Homo sapiens, UniProt O43570).
T9 construct: gene CA12; recombinant
Kind of assay: stopped-flow CO2 hydration assay. Type of assay: biochemical. A digest of the protocol: as §1

In PMC8745223, “Novel 1,3,5-Triazinyl Aminobenzenesulfonamides Incorporating Aminoalcohol, Aminochalcone and Aminostilbene Structural Motifs as Potent Anti-VRE Agents, and Carbonic Anhydrases I, II, VII, IX, and XII Inhibitors” (International Journal of Molecular Sciences, 2021) one finds Ki and MIC data, which are given here for 15 molecules.

Values after ≈ are worked out from the molar mass of the structure shown.

T3 sequence (P43166 whole entry): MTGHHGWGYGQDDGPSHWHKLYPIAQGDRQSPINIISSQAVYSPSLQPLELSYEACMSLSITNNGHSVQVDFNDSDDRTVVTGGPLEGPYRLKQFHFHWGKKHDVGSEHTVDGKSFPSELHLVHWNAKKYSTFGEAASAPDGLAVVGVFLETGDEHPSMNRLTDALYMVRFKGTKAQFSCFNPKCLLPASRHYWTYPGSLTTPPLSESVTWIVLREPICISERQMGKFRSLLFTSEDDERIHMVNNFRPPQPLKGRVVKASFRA
T9 sequence (O43570 25-354): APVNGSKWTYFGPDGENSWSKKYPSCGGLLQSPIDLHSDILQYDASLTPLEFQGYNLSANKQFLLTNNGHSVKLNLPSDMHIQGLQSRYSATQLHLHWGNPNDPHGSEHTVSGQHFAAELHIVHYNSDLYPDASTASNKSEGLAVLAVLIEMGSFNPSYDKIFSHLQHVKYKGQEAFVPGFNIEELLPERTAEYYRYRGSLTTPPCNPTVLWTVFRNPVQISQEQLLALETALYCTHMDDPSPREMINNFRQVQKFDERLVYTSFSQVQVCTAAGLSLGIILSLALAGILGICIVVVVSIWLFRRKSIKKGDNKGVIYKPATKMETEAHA

For `NS(=O)(=O)c1ccc(Nc2nc(Cl)nc(NCCCO)n2)cc1` [compound 1, 1], the inhibition constant Ki on hCA II was 44.8 nM; at hCA I, 26.8 nM; on hCA VII, 128 nM; at hCA IX, 229 nM.

On to `NS(=O)(=O)c1ccc(CNc2nc(Cl)nc(NCCCO)n2)cc1` [compound 5, 5], for which the affinity on hCA VII corresponds to a Ki of 332 nM. This lies in the sub-micromolar range.

On to `NS(=O)(=O)c1ccc(CNc2nc(NCCCO)nc(Nc3ccc(C(=O)/C=C/c4ccccc4)cc3)n2)cc1` [compound 13, 13], for which the Ki is 277 nM at hCA II, 1960 nM on hCA I, 95.7 nM at hCA VII and 4630 nM on hCA IX. Further, the MIC was 228 µM (≈ 128 µg/mL) in [1], 228 µM (≈ 128 µg/mL) in assay [2], 114 µM (≈ 63.8 µg/mL) in assay [3] and 228 µM (≈ 128 µg/mL) in assay [4].

With `NS(=O)(=O)c1ccc(CNc2nc(NCCCO)nc(Nc3ccc(C(=O)/C=C/c4ccccc4O)cc3)n2)cc1` [compound 14, 14], the Ki is 35.4 nM on hCA II, 5400 nM on hCA I, 180 nM on hCA VII and 623 nM at hCA IX. Further, the MIC in assay [1] is 111 µM (≈ 63.9 µg/mL); in assay [2], 111 µM (≈ 63.9 µg/mL); in assay [3] it was 111 µM (≈ 63.9 µg/mL); in [4], over 444 µM.

Turning to `NS(=O)(=O)c1ccc(CNc2nc(NCCCO)nc(Nc3ccc(C(=O)/C=C/c4ccc(O)cc4)cc3)n2)cc1` [compound 16, (E)-4-[({4-({4-[3-(4-Hydroxyphenyl)acryloyl]phenyl}amino)-6-[(3-hydroxypropyl)amino]-1,3,5-triazin-2-yl}amino)methyl]benzenesulfonamide], the inhibition constant (Ki) on hCA II is 36 nM; on hCA I, 800 nM; at hCA VII, 201 nM; at hCA IX, 161 nM. For the same molecule, the MIC in [1], in assay [2], in assay [3] and in assay [4] was over 444 µM each time.

In the case of `NS(=O)(=O)c1ccc(CCNc2nc(Cl)nc(NCCCO)n2)cc1` [compound 18, 18], at hCA VII, the affinity, expressed as Ki, was 75.7 nM. The MIC in [1] came out at 330 µM (≈ 128 µg/mL); in assay [2], 330 µM (≈ 128 µg/mL); in [3] it was 661 µM (≈ 256 µg/mL); in assay [4], 661 µM (≈ 256 µg/mL).

As to `NS(=O)(=O)c1ccc(CCNc2nc(Cl)nc(NCC(O)CO)n2)cc1` (stereo not shown) [compound 19, 19], the Ki at hCA VII was 40.7 nM. Also, the MIC in assay [1], in [2], in [3] and in assay [4] was over 635 µM in each case.

As to `NS(=O)(=O)c1ccc(CCNc2nc(NCCCO)nc(Nc3ccc(C(=O)/C=C/c4ccccc4O)cc3)n2)cc1` [compound 22, 22], the inhibitory constant (Ki) on hCA II is 939 nM; on hCA I, 7700 nM; on hCA VII, 283 nM; at hCA IX, over 10000 nM. Moreover, the MIC in assay [1], in assay [2], in assay [3] and in assay [4] was 108 µM (≈ 63.7 µg/mL) each time.

Regarding `NS(=O)(=O)c1ccc(CCNc2nc(Nc3ccc(O)cc3)nc(Nc3ccc(C(=O)/C=C/c4ccccc4O)cc3)n2)cc1` [compound 24, 24], the Ki on hCA II was determined as 63.8 nM; on hCA I, 5010 nM; at hCA VII it was 281 nM; at hCA IX, 227 nM. For the same molecule, the MIC in [1] was 51.3 µM (≈ 32 µg/mL); in assay [2], 51.3 µM (≈ 32 µg/mL); in assay [3] it was 51.3 µM (≈ 32 µg/mL); in assay [4] it was 102 µM (≈ 63.6 µg/mL).

As for `NS(=O)(=O)c1ccc(CCNc2nc(NCCCO)nc(Nc3ccc(C(=O)/C=C/c4cccc(O)c4)cc3)n2)cc1` [compound 25, (E)-4-[2-({4-({4-[3-(3-Hydroxyphenyl)acryloyl]phenyl}amino)-6-[(3-hydroxypropyl)amino]-1,3,5-triazin-2-yl}amino)ethyl]benzenesulfonamide], the Ki was 4130 nM on hCA II, 7490 nM on hCA I, 186 nM at hCA VII and over 10000 nM at hCA IX. In addition, the MIC stood at 27.1 µM (≈ 16 µg/mL) in [1], 27.1 µM (≈ 16 µg/mL) in [2], 27.1 µM (≈ 16 µg/mL) in assay [3] and 108 µM (≈ 63.7 µg/mL) in assay [4].

Consider `NS(=O)(=O)c1ccc(CCNc2nc(Nc3ccc(O)cc3)nc(Nc3ccc(C(=O)/C=C/c4cccc(O)c4)cc3)n2)cc1` [compound 26, (E)-4-[2-({4-({4-[3-(3-Hydroxyphenyl)acryloyl]phenyl}amino)-6-[(4-hydroxyphenyl)amino]-1,3,5-triazin-2-yl}amino)ethyl]benzenesulfonamide], for which the inhibition constant (Ki) on hCA II is 1340 nM; on hCA I it was 6630 nM; at hCA VII it was 42.1 nM; at hCA IX it was over 10000 nM. The MIC worked out at 51.3 µM (≈ 32 µg/mL) in [1], 51.3 µM (≈ 32 µg/mL) in [2], 25.6 µM (≈ 16 µg/mL) in assay [3] and 51.3 µM (≈ 32 µg/mL) in assay [4].

For `NS(=O)(=O)c1ccc(CCNc2nc(NCCCO)nc(Nc3ccc(C(=O)/C=C/c4ccc(O)cc4)cc3)n2)cc1` [compound 27, (E)-4-[2-({4-({4-[3-(4-Hydroxyphenyl)akryloyl]phenyl}amino)-6-[(3-hydroxypropyl)amino]-1,3,5-triazin-2-yl}amino)ethyl]benzenesulfonamide], the Ki is 28.8 nM at hCA II, 8960 nM at hCA I, 459 nM on hCA VII and over 10000 nM at hCA IX. Moreover, the MIC is over 434 µM in assay [1], over 434 µM in assay [2], over 434 µM in assay [3] and 434 µM (≈ 256 µg/mL) in assay [4].

For `NS(=O)(=O)c1ccc(CCNc2nc(Nc3ccc(O)cc3)nc(Nc3ccc(C(=O)/C=C/c4ccc(O)cc4)cc3)n2)cc1` [compound 29, (E)-4-[2-({4-({4-[3-(4-Hydroxyphenyl)acryloyl]phenyl}amino)-6-[(4-hydroxyphenyl)amino]-1,3,5-triazin-2-yl}amino)ethyl]benzenesulfonamide], the inhibition constant Ki at hCA II was 730 nM; on hCA I, 5810 nM; at hCA VII, 88.6 nM; on hCA IX it was over 10000 nM. Besides, the MIC in [1] was 25.6 µM (≈ 16 µg/mL); in assay [2] it was 25.6 µM (≈ 16 µg/mL); in assay [3], 102 µM (≈ 63.6 µg/mL); in assay [4] it was 51.3 µM (≈ 32 µg/mL).

On to `NS(=O)(=O)c1ccc(CCNc2nc(NCc3ccc(S(N)(=O)=O)cc3)nc(Nc3ccc(/C=C/c4cccc(O)c4)cc3)n2)cc1` [compound 40, (E)-4-{2-[(4-{[4-(3-Hydroxystyryl)phenyl]amino}-6-[(4-sulfamoylbenzyl)amino]-1,3,5-triazin-2-yl)amino]ethyl}benzenesulfonamide], for which the Ki on hCA XII turned out to be 60.5 nM; on hCA II it was 18.9 nM; on hCA I, 48.8 nM; at hCA IX it was 20.3 nM. Besides, the MIC in assay [1] is 190 µM (≈ 128 µg/mL); in assay [2], 190 µM (≈ 128 µg/mL); in assay [3], 380 µM (≈ 256 µg/mL); in assay [4], 190 µM (≈ 128 µg/mL).

For the molecule `NS(=O)(=O)c1ccc(CCNc2nc(NCC(O)CO)nc(Nc3ccc(/C=C/c4ccc(O)cc4)cc3)n2)cc1` (stereo not shown) [compound 42, (E)-4-{2-[(4-[(2,3-Dihydroxypropyl)amino]-6-{[4-(4-hydroxystyryl)phenyl]amino}-1,3,5-triazin-2-yl)amino]ethyl}benzenesulfonamide], the inhibition constant Ki was 9.7 nM on hCA XII, 96.3 nM at hCA II, 43.5 nM on hCA I and 258 nM at hCA IX. Moreover, the MIC was 55.4 µM (≈ 32 µg/mL) in assay [1], 110 µM (≈ 63.5 µg/mL) in [2], 221 µM (≈ 128 µg/mL) in assay [3] and 221 µM (≈ 128 µg/mL) in assay [4].
